Measured values: patent US8336545B2, “Methods and systems for operating an aerosol generator” (priority 2001, dated 2012)
Where two headings read alike, the source gives them in different places.

Columns and labels:
[1] = test system: Gram-negative pneumonia; assay: Example C: clinical outcome, IV antibiotic days and tolerability; type: in vivo, patients; conditions: placebo group versus aerosol group, p=0.02
Protocol: (§1) A study, using a double-blind, placebo-controlled protocol, was conducted of nebulized amikacin delivered using one or more embodiments of the pulmonary drug delivery system of the present invention in ventilated patients with Gram-negative pneumonia. The aerosol therapy was adjunctive to IV therapy per American Thoracic Society (ATS) guidelines. In this study, sixty seven patients received at least one dose of aerosol medication. Patients were randomized equally to three study arms. Arm 1 patients received an aerosolized dose of 400 mg amikacin once daily, alternating with a placebo on a twelve hour schedule. Arm 2 patients received 400 mg of amikacin twice daily (i.e. […]). Patients in Arm 3 were randomized to two aerosol treatments of placebo every twelve hours. The placebo was Normal saline. The amikacin concentration was determined in TA collected 15 min and 1, 2, 4, 8 and 12 hours after delivery of the morning dose on Days 1 and 3. A PDDS/ventilator circuit configuration was as described for Example B. The microprocessor was set to deliver aerosol during the first approximately 75% of the inspiration, to achieve aerosol drug deposition of 50-75% of the dose, within approximately 45 to 60 minutes. Amikacin levels were monitored by daily blood sampling.

[2] = test system: Gram-negative, pneumonia-causing bacteria; conditions: locally in TA; cited from earlier work
[3] = type: in vivo; conditions: all Arm 1 and 2 patients
Protocol: A study, using a double-blind, placebo-controlled protocol, was conducted of nebulized amikacin delivered using one or more embodiments of the pulmonary drug delivery system of the present invention in ventilated patients with Gram-negative pneumonia. The aerosol therapy was adjunctive to IV therapy per American Thoracic Society (ATS) guidelines. Such guidelines are fully set forth, for example, in the American Journal of Respiratory Critical Care Medicine, Vol 171, pages 388-416 (2005), incorporated by reference herein in its entirety. Twelve patients were randomized equally to three study arms: Arm 1 received an aerosolized dose of 400 mg amikacin once daily, and thereafter alternating every twelve hours with placebo. Arm 2 patients received 400 mg of amikacin twice daily (i.e. […]). Patients in Arm 3 were randomized to two aerosolized treatments of placebo every twelve hours. The placebo was Normal saline. […] Amikacin levels were monitored by daily blood sampling. […] The apparent volume of epithelial lining fluid (ELF) recovered by BAL was determined by using urea as an endogenous marker of dilution. The same day, the amikacin concentration was determined in tracheal aspirates (TA) collected 15 min and 1, 2, 4, 8 and 12 hours post aerosol delivery.

[4] = design: species or system patients; conditions: in vivo
Protocol: In this Example, the dose-response to aerosolized amikacin, administered in accordance with one or more embodiments of devices, apparatus and/or methods of the present invention was evaluated, as was the ability to deliver a predefined target multiple of an MIC for Gram-negative bacteria causing pneumonia, including, Pseudomonas species, in the tracheal aspirates (TA). […] Thus the desired multiple is 6,400 μg/mL.
as §1

[5] = test system: Gram-negative pneumonia; type: in vivo, patients
Protocol: A study, using a double-blind, placebo-controlled protocol, was conducted of nebulized amikacin delivered using one or more embodiments of the pulmonary drug delivery system of the present invention in ventilated patients with Gram-negative pneumonia. The aerosol therapy was adjunctive to IV therapy per American Thoracic Society (ATS) guidelines. Patients were randomized equally to three study arms. Arm 1 patients received an aerosolized dose of 400 mg amikacin once daily, alternating with a placebo on a twelve hour schedule. Arm 2 patients received 400 mg of amikacin twice daily (i.e. […]). Patients in Arm 3 were randomized to two aerosol treatments of placebo every twelve hours. The placebo was Normal saline. Peak amikacin concentration was determined in serum collected 0.25, 1, 2, and 4 hours after delivery of the dose on days 1 and 3, and the data was used to calculate Cmax. Trough concentrations were determined daily 30 minutes prior to the first daily dose. A PDDS/ventilator circuit configuration was as described for Example B. The microprocessor was set to deliver aerosol during the first approximately 75% of the inspiration, to achieve aerosol drug deposition of 50-75% of the dose within approximately 45 to 60 minutes. Amikacin levels were monitored by daily blood sampling.
The embodiments of devices, apparatus and/or methods of the present invention thus reduce the number of antibiotics required systemically to achieve a therapeutic result.

[6] = 400 mg daily (N = 20), percent of patients
[7] = 400 mg twice daily (N = 16), count
[8] = 400 mg twice daily (N = 16), percent of patients

NCC[C@H](O)C(=O)N[C@@H]1C[C@H](N)[C@@H](O[C@H]2O[C@H](CN)[C@@H](O)[C@H](O)[C@H]2O)[C@H](O)[C@H]1O[C@H]1O[C@H](CO)[C@@H](O)[C@H](N)[C@H]1O [amikacin]
IV antibiotic days at the end of aerosol administration [1]: placebo group had statistically more IV antibiotic days then the aerosol group
reference MIC value [2]: 256 µg/mL
amikacin levels versus highest MIC values [3]: exceeded the highest MIC values for pathogens causing Gram-negative pneumonia
TA levels of amikacin ([4]; human): exceeded 1,100 μg/mL
TA level as multiple of the reference MIC target value [4]: at least four
amikacin level versus highest MIC values [4]: exceeded the highest MIC values for most Gram negative pathogens causing pneumonia
mean IV antibiotics at end of treatment, aerosolized placebo relative to twice daily aerosolized amikacin ([5]; 400 mg BID, end of treatment (mean of seven days)): about two
Total Number of Daily Antimicrobials ([5]; 400 mg daily (N = 20)): 118
Number of Patients With at Least One Daily Antimicrobial ([5]; 400 mg daily (N = 20), count): 19
patients with ANTIBACTERIALS FOR SYSTEMIC USE ([5]; 400 mg daily (N = 20), count): 18
Number of Patients With at Least One Daily Antimicrobial [5, 6]: (95.0%)
patients with ANTIBACTERIALS FOR SYSTEMIC USE [5, 6]: (90.0%)
Total Number of Daily Antimicrobials ([5]; 400 mg twice daily (N = 16)): 75
Number of Patients With at Least One Daily Antimicrobial [5, 7]: 16
patients with ANTIBACTERIALS FOR SYSTEMIC USE [5, 7]: 16
Number of Patients With at Least One Daily Antimicrobial [5, 8]: (100.0%)
patients with ANTIBACTERIALS FOR SYSTEMIC USE [5, 8]: (100.0%)
